Measured values reported in ChEMBL document CHEMBL1201862, “PubChem BioAssay data set” (2004).
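Step 1: Grow cells in 96-well plates. Step 2: Expose to compound for 48 hours at 5 concentrations. Step 3: Interpolate endpoints linearly; if unreached, use highest concentration. GI50 marks 50% less growth.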 Activity calls are given as the source filed them. Rule as the data show it: active = GI50 up to about 1.1 µM and inactive = higher.

Legend:
Experiment in all cases: growth of human tumour cells (NCI), 48 h
Malme-3M = tested on: Malme-3M
A549 = tested on: A549
SN12C = tested on: SN12C
TK-10 = tested on: TK-10
RPMI-8226 = tested on: RPMI-8226
HCT-116 = tested on: HCT-116
XF498 = tested on: XF498
LOX IMVI = tested on: LOX IMVI
M19-MEL = tested on: M19-MEL
SF-268 = tested on: SF-268
KM-20L2 = tested on: KM-20L2
OVCAR-5 = tested on: OVCAR-5
NCI-H460 = tested on: NCI-H460
M14 = tested on: M14
OVCAR-4 = tested on: OVCAR-4
SW-620 = tested on: SW-620

Measured: GI50

N#CC(/C(=N/NC(=N)N)C(=O)Nc1ccccc1[N+](=O)[O-])c1nc(-c2ccc([N+](=O)[O-])cc2)cs1 (stereo not given)
inactive: Malme-3M > 100 µM | A549 > 100 µM | SN12C > 100 µM | TK-10 > 100 µM | RPMI-8226 > 100 µM | HCT-116 > 100 µM | XF498 > 100 µM | LOX IMVI > 100 µM | M19-MEL > 100 µM | SF-268 > 100 µM | KM-20L2 > 100 µM | OVCAR-5 > 100 µM | NCI-H460 > 100 µM | M14 > 100 µM | OVCAR-4 > 100 µM | SW-620 > 100 µM

C=CCNC(=S)N/C=C1\C(=O)Oc2ccccc2C1=O
inactive: Malme-3M 27.4 µM | A549 93.8 µM | SN12C 46.5 µM | TK-10 64.7 µM | RPMI-8226 > 100 µM | HCT-116 49.5 µM | XF498 18.9 µM | LOX IMVI 95.5 µM | M19-MEL > 100 µM | SF-268 36 µM | KM-20L2 > 100 µM | OVCAR-5 62.4 µM | NCI-H460 > 100 µM | M14 63.4 µM | OVCAR-4 > 100 µM | SW-620 74.6 µM

CCOC(=O)C(C(=O)OCC)=C1C=C(c2ccccc2)c2ccccc21
inactive: Malme-3M > 100 µM | A549 79.3 µM | SN12C > 100 µM | TK-10 79.1 µM | RPMI-8226 16.6 µM | HCT-116 48.9 µM | XF498 70.5 µM | LOX IMVI 28.8 µM | M19-MEL 52.5 µM | SF-268 > 100 µM | KM-20L2 31.6 µM | OVCAR-5 38.6 µM | NCI-H460 31.8 µM | M14 35.9 µM | OVCAR-4 38.3 µM | SW-620 89.3 µM

c1ccc2c(c1)CCCc1cc3ccccc3nc1-2
inactive: Malme-3M > 100 µM | A549 > 100 µM | SN12C > 100 µM | TK-10 > 100 µM | RPMI-8226 31 µM | HCT-116 > 100 µM | XF498 53.3 µM | M19-MEL > 100 µM | SF-268 92.5 µM | KM-20L2 > 100 µM | OVCAR-5 > 100 µM | NCI-H460 > 100 µM | M14 > 100 µM | OVCAR-4 68.1 µM | SW-620 > 100 µM

CCN(CC)CCN1CCc2c([nH]c3ccccc23)C1c1cccnc1 (stereo not given)
inactive: A549 > 100 µM | SN12C > 100 µM | TK-10 > 100 µM | RPMI-8226 > 100 µM | HCT-116 > 100 µM | XF498 > 100 µM | LOX IMVI > 100 µM | M19-MEL > 100 µM | SF-268 > 100 µM | KM-20L2 > 100 µM | OVCAR-5 > 100 µM | NCI-H460 > 100 µM | M14 > 100 µM | OVCAR-4 > 100 µM | SW-620 > 100 µM

C[C@]12CCC(=O)C(O)=C1CC[C@@H]1C2CC[C@]2(C)Nc3c(cnn3-c3ccccc3)CC12 (stereo not given in full)
inactive: Malme-3M 91 µM | A549 > 100 µM | TK-10 > 100 µM | RPMI-8226 27.4 µM | HCT-116 28.2 µM | XF498 > 100 µM | M19-MEL > 100 µM | KM-20L2 56.5 µM | OVCAR-5 > 100 µM | NCI-H460 48.8 µM | M14 > 100 µM | OVCAR-4 96.2 µM | SW-620 > 100 µM

COc1ccc(C2=Nc3ccccc3N=C(SC)C2)cc1
inactive: Malme-3M > 100 µM | A549 95.1 µM | SN12C 66.7 µM | TK-10 40.7 µM | HCT-116 50.4 µM | XF498 37.8 µM | LOX IMVI 16.9 µM | M19-MEL 39.8 µM | SF-268 > 100 µM | KM-20L2 41.3 µM | OVCAR-5 44 µM | NCI-H460 24.5 µM | M14 59.7 µM | OVCAR-4 48.5 µM | SW-620 16.9 µM

O=C(NCCO)c1ccc([N+](=O)[O-])cc1
inactive: Malme-3M > 100 µM | A549 > 100 µM | SN12C > 100 µM | TK-10 > 100 µM | RPMI-8226 > 100 µM | XF498 > 100 µM | LOX IMVI > 100 µM | M19-MEL > 100 µM | SF-268 > 100 µM | KM-20L2 > 100 µM | NCI-H460 > 100 µM | M14 > 100 µM | SW-620 > 100 µM

Cc1cc(N(CCC#N)CCC#N)ccc1/C=C(\NC(=O)/C=C/c1ccccc1)NC(=O)Nc1ccccc1C
inactive: Malme-3M > 100 µM | A549 > 100 µM | SN12C 77.3 µM | RPMI-8226 > 100 µM | HCT-116 > 100 µM | XF498 > 10 µM | LOX IMVI 63.4 µM | M19-MEL > 100 µM | SF-268 24.7 µM | KM-20L2 > 100 µM | OVCAR-5 > 100 µM | NCI-H460 76.2 µM | M14 > 100 µM | OVCAR-4 26.8 µM | SW-620 > 100 µM

C=CC(=O)Nc1ccccc1CC(c1c[nH]c2ccccc12)c1c[nH]c2ccccc12
inactive: Malme-3M 18 µM | A549 23.4 µM | SN12C 16.3 µM | TK-10 26.7 µM | RPMI-8226 17.5 µM | XF498 21.1 µM | LOX IMVI 18.5 µM | M19-MEL 15.6 µM | SF-268 24.1 µM | M14 16.3 µM | SW-620 20.2 µM

COc1ccc(O)cc1C(O)c1ccccc1 (stereo not given)
inactive: Malme-3M > 100 µM | A549 > 100 µM | SN12C > 100 µM | TK-10 > 100 µM | HCT-116 > 100 µM | XF498 > 100 µM | LOX IMVI > 100 µM | M19-MEL > 100 µM | SF-268 > 100 µM | KM-20L2 > 100 µM | OVCAR-5 > 100 µM | NCI-H460 > 100 µM | M14 > 100 µM | OVCAR-4 > 100 µM | SW-620 > 100 µM

O=C(Cc1ccccc1)NN1C(=O)C(Cl)C1c1ccccc1 (stereo not given)
inactive: Malme-3M > 100 µM | A549 > 100 µM | SN12C 35.9 µM | TK-10 > 100 µM | RPMI-8226 18.7 µM | HCT-116 > 100 µM | XF498 24.6 µM | M19-MEL > 100 µM | SF-268 > 100 µM | KM-20L2 > 100 µM | OVCAR-5 > 100 µM | NCI-H460 > 100 µM | M14 > 100 µM | OVCAR-4 39.1 µM | SW-620 > 100 µM

CCCCCCCCC(O)C#CC(N)=O (stereo not given)
inactive: Malme-3M 16.7 µM | A549 14.7 µM | SN12C 7.59 µM | TK-10 16 µM | RPMI-8226 7.48 µM | HCT-116 3.67 µM | XF498 17.1 µM | LOX IMVI 11.7 µM | M19-MEL 11.8 µM | KM-20L2 15.6 µM | OVCAR-5 26.7 µM | NCI-H460 9.1 µM | M14 12.3 µM | OVCAR-4 2.51 µM | SW-620 14.1 µM
